Results taken from patent US8513232B2, “Substituted spirocyclic piperidine derivatives as histamine-3 (H3) receptor ligands” (Cephalon, Inc., priority 2008, dated 2013).
Where two headings read alike, the source gives them in different places.

Tests used:
human H3 receptor = biological target: T1, human H3 receptor (Homo sapiens, UniProt Q9Y5N1); assay: Human H3 radioligand binding ([3H]-N-alpha-methylhistamine, SPA)
T1 construct: expressed in transfected cells
How it was run: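 Compounds (0.01 nM-30 μM) competed with approximately 1 nM [3H]-N-alpha-methylhistamine for human H3 receptor in membranes of stably transfected CHO cells, 10 μg protein per well, in Tris-HCl pH 7.4/MgCl2/BSA buffer for 4 h at room temperature. Bound radioligand measured by scintillation proximity; 10 μM clobenpropit gave non-specific binding.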

[1] = biological target: T2, rat histamine H3 receptor (Rattus norvegicus, UniProt Q9QYN8); assay: Rat H3 radioligand binding ([3H]-N-alpha-methylhistamine, SPA)
T2 construct: encoding the entire 445-amino-acid rat histamine H3 receptor; expressed in transfected cells; membrane preparation
How it was run: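 SPA-bead binding assay using [3H]-N-alpha-methylhistamine (approximately 1 nM final) with test compounds from 0.01 nM to 30 μM. Rat H3 receptor membranes came from stably transfected CHO-A3 cells; incubation ran 4 h at room temperature, in the dark, in Tris pH 7.4 buffer with MgCl2 and BSA. Clobenpropit (10 μM) gave non-specific binding.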

[2] = Human H3 binding, Table B, Examples 136-362, read-out: hum H3 binding Ki
[3] = Rat H3 binding, Table B, Examples 136-362, read-out: rat H3 binding Ki
[4] = human H3 binding, Table D, read-out: Human H3 Ki
[5] = rat H3 binding, Table D, read-out: Rat H3 Ki
[6] = Table A, human H3 binding, read-out: Human Ki
[7] = Table A, rat H3 binding, read-out: Rat Ki
[8] = Table C, human H3 binding, read-out: Human H3 Ki
[9] = Table C, rat H3 binding, read-out: Rat H3 Ki

T2 sequence (Q9QYN8 whole entry): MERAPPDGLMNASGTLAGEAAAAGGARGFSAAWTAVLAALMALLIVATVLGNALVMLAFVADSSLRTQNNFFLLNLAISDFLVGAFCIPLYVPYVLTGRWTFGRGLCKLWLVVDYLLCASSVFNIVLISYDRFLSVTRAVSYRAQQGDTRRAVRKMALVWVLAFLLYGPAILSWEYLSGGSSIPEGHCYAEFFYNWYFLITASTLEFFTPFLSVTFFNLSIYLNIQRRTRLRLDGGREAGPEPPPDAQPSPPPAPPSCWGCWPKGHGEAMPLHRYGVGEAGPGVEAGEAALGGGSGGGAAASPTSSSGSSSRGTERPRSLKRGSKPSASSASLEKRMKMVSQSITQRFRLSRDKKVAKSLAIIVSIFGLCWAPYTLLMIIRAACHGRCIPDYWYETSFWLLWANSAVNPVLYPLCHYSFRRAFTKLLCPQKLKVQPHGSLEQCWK
T1 sequence (Q9Y5N1 whole entry): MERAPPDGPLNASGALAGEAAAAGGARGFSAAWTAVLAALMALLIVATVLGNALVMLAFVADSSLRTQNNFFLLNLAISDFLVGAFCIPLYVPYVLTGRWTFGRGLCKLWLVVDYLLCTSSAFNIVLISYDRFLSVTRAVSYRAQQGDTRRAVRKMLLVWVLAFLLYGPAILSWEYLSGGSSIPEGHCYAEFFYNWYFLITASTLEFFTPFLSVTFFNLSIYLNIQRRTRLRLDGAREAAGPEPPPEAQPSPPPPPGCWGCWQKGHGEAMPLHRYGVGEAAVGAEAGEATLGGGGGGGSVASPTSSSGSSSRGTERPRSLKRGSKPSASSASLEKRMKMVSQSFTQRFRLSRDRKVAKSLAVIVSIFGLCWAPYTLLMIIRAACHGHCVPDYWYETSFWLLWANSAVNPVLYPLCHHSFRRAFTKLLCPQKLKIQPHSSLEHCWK

Row | Compound | Ki (human H3 receptor; [2]) [µM] | melting point | Ki [1, 3] [µM] | Ki (human H3 receptor; [4]) [µM] | Ki [1, 5] [µM] | other results
1 | O=C1N(CCO)CCN1c1ccc2c(c1)COC1(CCN(C3CCC3)CC1)O2 [Example 146] | < 0.2 | 152 to 155 °C | < 0.2 |  |  | 
2 | O=C(Cc1ccncc1)Nc1ccc2c(c1)COC1(CCN(C3CCC3)CC1)O2 [Example 331] | < 0.2 | 170 to 172 °C | < 0.2 |  |  | 
3 | Cn1nccc1-c1ccc2c(c1)COC1(CCN(C3CCC3)CC1)O2 [Example 740] |  | 107 to 109 °C |  | < 0.2 | < 0.2 | 
4 | O=C(Nc1ccc2c(c1)COC1(CCN(C3CCC3)CC1)O2)c1cc[nH]c(=O)c1 [Example 278] | < 0.2 | 260 to 262 °C | < 0.2 |  |  | 
5 | O=c1[nH]cc(-c2ccc3c(c2)COC2(CCN(C4CCC4)CC2)O3)c2ccccc12 [Example 777] |  | 202 to 204 °C |  | < 0.2 | < 0.2 | 
6 | c1cc2c(cc1OCc1nnc(C3CC3)o1)CCC1(CCN(C3CCC3)CC1)O2 [Example 671] |  | 158 to 159 °C |  | < 0.2 | < 0.2 | 
7 | O=c1cc(-c2ccc3c(c2)COC2(CCN(C4CCC4)CC2)O3)ccn1CC(F)(F)F [Example 772] |  | 196 to 198 °C |  | < 0.2 | < 0.2 | 
8 | COC1CCN(C(=O)c2ccc(-c3ccc4c(c3)CCC3(CCN(C5CCC5)CC3)O4)cn2)CC1 [Example 251] | < 0.2 | 150 to 152 °C | < 0.2 |  |  | 
9 | O=C(c1ccc(Nc2ccc3c(c2)COC2(CCN(C4CCC4)CC2)O3)cc1)N1CC[C@@H](O)C1 [Example 215] | < 0.2 | 114 to 116 °C | < 0.2 |  |  | 
10 | CNC(=O)c1ccc(-c2ccc3c(c2)CCC2(CCN(C4CCC4)CC2)O3)nc1 [Example 595] |  | 192 to 194 °C |  | < 0.2 | < 0.2 | 
11 | O=C(Nc1ccc2c(c1)COC1(CCN(C3CCC3)CC1)O2)c1ccncn1 [Example 297] | < 0.2 | 198 to 199 °C | < 0.2 |  |  | 
12 | O=C(Nc1ccc2c(c1)COC1(CCN(C3CCC3)CC1)O2)c1ccnc(N2CCOCC2)c1 [Example 313] | < 0.2 | 205 to 207 °C | < 0.2 |  |  | 
13 | O=C(Nc1nccs1)c1ccc(-c2ccc3c(c2)COC2(CCN(C4CCC4)CC2)O3)cc1 [Example 43] |  | 242 to 243 °C |  |  |  | Ki (human H3 receptor; [6]): < 0.2 µM; Ki [1, 7]: < 0.2 µM
14 | CC(C)OCCNC(=O)c1ccc(-c2ccc3c(c2)CCC2(CCN(C4CCC4)CC2)O3)cc1 [Example 312] | < 0.2 | 135 to 137 °C | < 0.2 |  |  | 
15 | COc1ncc(-c2ccc3c(c2)COC2(CCN(C4CCC4)CC2)O3)c(OC)n1 [Example 662] |  | 250 °C (dec.) |  | < 0.2 | < 0.2 | 
16 | OCc1cn(-c2ccc3c(c2)COC2(CCN(C4CCC4)CC2)O3)c2ccccc12 [Example 84] |  | 138 to 141 °C |  |  |  | Ki (human H3 receptor; [6]): < 0.2 µM; Ki [1, 7]: < 0.2 µM
17 | O=c1ccc(N2CCN(c3ccc4c(c3)CCC3(CCN(C5CCC5)CC3)O4)CC2)n[nH]1 [Example 419] |  | 278 to 280 °C |  |  |  | Ki (human H3 receptor; [8]): < 0.2 µM; Ki [1, 9]: < 0.2 µM
18 | O=c1[nH]cccc1-c1ccc2c(c1)COC1(CCN(C3CCC3)CC1)O2 [Example 488] |  | 167 to 169 °C |  |  |  | Ki (human H3 receptor; read-out: Human H3 Ki): < 0.2 µM; Ki ([1]; read-out: Rat H3 kI): < 0.2 µM
19 | Cc1c(-c2ccc3c(c2)COC2(CCN(C4CCC4)CC2)O3)ccc(=O)n1C(F)F [Example 763] |  | 143 to 145 °C |  | < 0.2 | < 0.2 | 
20 | CNC(=O)c1cnc(-c2ccc3c(c2)COC2(CCN(C4CCC4)CC2)O3)s1 [Example 164] | < 0.2 | 200 to 203 °C | < 0.2 |  |  | 
21 | CN(C)C(=O)c1cnc(COc2ccc3c(c2)CCC2(CCN(C4CCC4)CC2)O3)cn1 [Example 619] |  | 120 to 123 °C |  | < 0.2 | < 0.2 | 
22 | c1cc2c(cc1N1CCC3(CC1)OCCO3)CCC1(CCN(C3CCC3)CC1)O2 [Example 398] |  | 135 to 137 °C |  |  |  | Ki (human H3 receptor; [8]): < 0.2 µM; Ki [1, 9]: < 0.2 µM
23 | CCc1cc(-c2ccc3c(c2)COC2(CCN(C4CCC4)CC2)O3)c(C)[nH]c1=O [Example 808] |  | 211 to 213 °C |  | < 0.2 | < 0.2 | 
24 | COCC(C)(C)NC(=O)c1ccc(-c2ccc3c(c2)CCC2(CCN(C4CCC4)CC2)O3)cc1 [Example 274] | < 0.2 | 264 to 266 °C | < 0.2 |  |  | 
25 | CCOC(=O)c1ccc(NC(=O)Nc2ccc3c(c2)COC2(CCN(C4CCC4)CC2)O3)cc1 [Example 208] | < 0.2 | 188 to 189 °C | 0.2 to 1 |  |  | 

Row | Compound | Ki (human H3 receptor; [2]) [µM] | melting point | Ki [1, 3] [µM] | Ki (human H3 receptor; [4]) [µM] | Ki [1, 5] [µM] | other results
26 | O=S1(=O)CCC(c2ccc3c(c2)COC2(CCN(C4CCC4)CC2)O3)C1 (stereo not drawn) [Example 491] |  | 151 to 152 °C |  |  |  | Ki (human H3 receptor; read-out: Human H3 Ki): < 0.2 µM; Ki ([1]; read-out: Rat H3 kI): < 0.2 µM
27 | O=C(NCCO)c1ccc(-c2ccc3c(c2)CCC2(CCN(C4CCC4)CC2)O3)cc1F [Example 147] | < 0.2 | 215 to 217 °C | < 0.2 |  |  | 
28 | FC1(F)CCN(c2ccc3c(c2)CCC2(CCN(C4CCC4)CC2)O3)CC1 [Example 404] |  | > 283 °C (dec.) |  |  |  | Ki (human H3 receptor; [8]): < 0.2 µM; Ki [1, 9]: < 0.2 µM
29 | CN(C)C(=O)c1cc(COc2ccc3c(c2)CCC2(CCN(C4CCC4)CC2)O3)ccn1 [Example 623] |  | 165 to 167 °C |  | < 0.2 | < 0.2 | 
30 | CN(C)C(=O)NC1CCN(c2ccc3c(c2)CCC2(CCN(C4CCC4)CC2)O3)CC1 [Example 573] |  | 204.2 to 206.4 °C |  | < 0.2 | < 0.2 | 
31 | NC(=O)c1ccc(-c2ccc3c(c2)COC2(CCN(C4CCC4)CC2)O3)cc1O [Example 743] |  | 267 to 269 °C |  | < 0.2 | < 0.2 | 
32 | O=C(C1CC(O)(c2ccc3c(c2)COC2(CCN(C4CCC4)CC2)O3)C1)N1CCCC1 (stereo not drawn) [Example 482] |  | 157 to 159 °C |  |  |  | Ki (human H3 receptor; read-out: Human H3 Ki): < 0.2 µM; Ki ([1]; read-out: Rat H3 kI): < 0.2 µM
33 | CNC(=O)c1ccc(-c2cc(F)c3c(c2)COC2(CCN(C4CCC4)CC2)O3)cc1F [Example 142] | < 0.2 | 156 to 158 °C | < 0.2 |  |  | 
34 | O=C1OCCN1c1ccc2c(c1)COC1(CCN(C3CCC3)CC1)O2 [Example 77] |  | 165 to 168 °C |  |  |  | Ki (human H3 receptor; [6]): < 0.2 µM; Ki [1, 7]: < 0.2 µM
35 | COCCN(C)C(=O)c1ccc(-c2ccc3c(c2)COC2(CCN(C4CCC4)CC2)O3)cc1 [Example 306] | < 0.2 | 232 to 234 °C | < 0.2 |  |  | 
36 | Cc1cnccc1C(=O)Nc1ccc2c(c1)COC1(CCN(C3CCC3)CC1)O2 [Example 353] | < 0.2 | 209 to 210 °C | < 0.2 |  |  | 
37 | c1ccn2ncc(-c3ccc4c(c3)COC3(CCN(C5CCC5)CC3)O4)c2c1 [Example 757] |  | 158 to 160 °C |  | < 0.2 | < 0.2 | 
38 | OCC1CCN(c2ccc3c(c2)COC2(CCN(C4CCC4)CC2)O3)CC1 [Example 601] |  | 88.9 to 91.4 °C |  | < 0.2 | < 0.2 | 
39 | O=C(c1ccccc1Nc1ccc2c(c1)COC1(CCN(C3CCC3)CC1)O2)N1CCOCC1 [Example 159] | < 0.2 | 60 to 63 °C | 0.2 to 1 |  |  | 
40 | CNC(=O)N1CCN(c2ccc3c(c2)COC2(CCN(C4CCC4)CC2)O3)C(=O)C1 [Example 137] | < 0.2 | 145 to 149 °C | 0.2 to 1 |  |  | 
41 | CN1CC(c2ccc3c(c2)COC2(CCN(C4CCC4)CC2)O3)CCC1=O (stereo not drawn) [Example 550] |  | 120 to 125 °C |  |  |  | Ki (human H3 receptor; read-out: Human H3 Ki): < 0.2 µM; Ki ([1]; read-out: Rat H3 kI): < 0.2 µM
42 | COc1ccc(-c2ccc3c(c2)COC2(CCN(CCC4CCOCC4)CC2)O3)cn1 [Example 711] |  | 143 to 145 °C |  | > 1 | > 1 | 
43 | CC(C)Oc1cc(-c2ccc3c(c2)COC2(CCN(C4CCC4)CC2)O3)c(Cl)cn1 [Example 780] |  | 131 to 132 °C |  | < 0.2 | < 0.2 | 
44 | COCC(C)(C)NC(=O)c1ccc(-c2ccc3c(c2)COC2(CCN(C4CCC4)CC2)O3)cc1 [Example 284] | < 0.2 | 138 to 140 °C | < 0.2 |  |  | 
45 | c1cnc(Oc2ccc3c(c2)CCC2(CCN(C4CCC4)CC2)O3)nc1 [Example 400] |  | 258 to 260 °C |  |  |  | Ki (human H3 receptor; [8]): 0.2 to 1 µM; Ki ([1]; Table C, rat H3 binding, given as numeric bound, read-out: Rat H3 Ki): > 0.3 µM
46 | O=c1ccc(-c2ccc3c(c2)COC2(CCN(CC4CCOCC4)CC2)O3)c[nH]1 [Example 722] |  | 245 to 248 °C |  | 0.2 to 1 | > 1 | 
47 | O=c1ccc(-c2ccc3c(c2)COC2(CCN(C4CCC4)CC2)O3)cn1CC(F)(F)F [Example 710] |  | 158 to 160 °C |  | < 0.2 | < 0.2 | 
48 | O=C(NC1CCOCC1)c1ccc(-c2ccc3c(c2)COC2(CCN(C4CCC4)CC2)O3)cn1 [Example 639] |  | 108 to 110 °C |  | < 0.2 | < 0.2 | 
49 | CCn1cc(-c2ccc3c(c2)COC2(CCN(C4CCC4)CC2)O3)ccc1=O [Example 778] |  | 156 to 158 °C |  | < 0.2 | < 0.2 | 
